In patent US7148026B2, “Dog melanin-concentrating hormone receptor” (Merck & Co., Inc., priority 2000, dated 2006):
pEC50: −log10 of the molar value.

Test system: dog MCH receptor
Assay: Aequorin bioluminescence assay in 293-AEQ17 cells transfected with dog MCH receptor
Format: cell-based
Settings: 293-AEQ17 cells transfected with dog MCH receptor plasmid; fractional response of aequorin luminescence; read-out: EC50 value for activation of the dog MCH receptor
Description: Measurement of MCH receptor expression in the aequorin-expressing stable reporter cell line 293-AEQ17 (Button et al., 1993, Cell Calcium, 14, 663–671) was performed using a Luminoskan RT luminometer (Labsystems Inc., Gaithersburg, Md.) controlled by custom software written for a Macintosh PowerPC 6100. 293-AEQ17 cells (8×10^5 cells plated 18 hours before transfection in a T75 flask) were transfected with 22 μg of dog MCH receptor plasmid DNA: 264 μg lipofectamine.
Following approximately 40 hours of expression the apo-aequorin in the cells was charged for 4 hours with coelenterazine (10 μM) under reducing conditions (300 μM reduced glutathione) in ECB buffer (140 mM NaCl, 20 mM KCl, 20 mM HEPES-NaOH [pH=7.4], 5 mM glucose, 1 mM MgCl2, 1 mM CaCl2, 0.1 mg/ml bovine serum albumin). […] 100 μl of cell suspension (corresponding to 5×10^4 cells) was then injected into the test plate containing MCH, and the integrated light emission was recorded over 30 seconds, in 0.5 second units. 20 μL of lysis buffer (0.1% final Triton X-100 concentration) was then injected and the integrated light emission recorded over 10 seconds, in 0.5 second units.
The “fractional response” values for each well were calculated by taking the ratio of the integrated response to the initial challenge to the total integrated luminescence including the Triton X-100 lysis response. […]

Chain of dog MCH receptor (as listed by the source): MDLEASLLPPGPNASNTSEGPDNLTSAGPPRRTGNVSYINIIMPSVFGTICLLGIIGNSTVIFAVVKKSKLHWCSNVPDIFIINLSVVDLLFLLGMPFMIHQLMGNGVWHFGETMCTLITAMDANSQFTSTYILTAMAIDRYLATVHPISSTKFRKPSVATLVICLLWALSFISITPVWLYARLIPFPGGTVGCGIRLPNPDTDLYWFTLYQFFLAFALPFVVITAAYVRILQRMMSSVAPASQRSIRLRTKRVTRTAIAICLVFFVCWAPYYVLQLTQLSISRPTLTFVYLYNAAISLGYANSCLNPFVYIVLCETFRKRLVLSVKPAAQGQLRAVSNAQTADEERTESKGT

Melanin-concentrating hormone [MCH]
pEC50: ~7.52
